Experimental data: patent US9073907B2, “Thiazoles derivatives and their use as positive allosteric modulators of metabotropic glutamate receptors” (Addex Pharma S.A., priority 2009, dated 2015)
Several values for one entry are separate records, joined by “and”; a condition that tells them apart may be missing. Equal values may be shown once.

Columns and labels:
[1] = target: T1, recombinant human mGluR4a receptors (Homo sapiens, UniProt Q14833); test: mGluR4 assay on HEK-expressing human mGluR4: fluorescent cell based Ca2+ mobilization assay (FLIPR, Fluo-4); conditions: enhancement of EC25 glutamate response in HEK-293 cells expressing hmGluR4; mean of at least three independent experiments performed in duplicate; read-out: Ca^2+ Flux (mean EC50)
T1 construct: expressed in transfected cells
T1 sequence (Q14833 33-912): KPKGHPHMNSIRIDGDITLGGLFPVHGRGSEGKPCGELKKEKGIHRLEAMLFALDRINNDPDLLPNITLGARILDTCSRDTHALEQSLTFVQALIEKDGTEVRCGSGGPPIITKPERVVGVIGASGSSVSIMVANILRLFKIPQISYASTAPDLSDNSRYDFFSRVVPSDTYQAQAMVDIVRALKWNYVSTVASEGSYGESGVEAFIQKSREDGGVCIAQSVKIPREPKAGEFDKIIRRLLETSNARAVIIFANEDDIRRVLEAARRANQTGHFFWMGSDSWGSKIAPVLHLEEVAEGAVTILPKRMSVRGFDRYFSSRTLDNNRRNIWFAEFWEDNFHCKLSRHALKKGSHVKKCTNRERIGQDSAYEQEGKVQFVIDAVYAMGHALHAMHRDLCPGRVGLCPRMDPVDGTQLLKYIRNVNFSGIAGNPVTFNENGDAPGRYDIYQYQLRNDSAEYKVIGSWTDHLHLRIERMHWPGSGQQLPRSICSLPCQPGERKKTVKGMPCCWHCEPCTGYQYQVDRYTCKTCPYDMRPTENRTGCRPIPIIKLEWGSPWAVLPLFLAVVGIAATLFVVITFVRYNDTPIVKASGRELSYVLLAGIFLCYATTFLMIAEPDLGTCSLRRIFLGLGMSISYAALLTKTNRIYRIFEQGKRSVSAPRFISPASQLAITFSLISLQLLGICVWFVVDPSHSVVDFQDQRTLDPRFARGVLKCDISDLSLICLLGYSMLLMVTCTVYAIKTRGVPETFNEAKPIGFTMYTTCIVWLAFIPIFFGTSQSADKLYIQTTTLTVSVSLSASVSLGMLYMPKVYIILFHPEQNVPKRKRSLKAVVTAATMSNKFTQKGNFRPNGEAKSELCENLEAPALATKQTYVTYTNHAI
From the text: mGluR4 Assay on HEK-Expressing Human mGluR4 The compounds of the present invention are positive allosteric modulators of mGluR4 receptor. Their activity was examined on recombinant human mGluR4a receptors by detecting changes in intracellular Ca^2+ concentration, using the fluorescent Ca^2+-sensitive dye Fluo-4-(AM) and a Fluorometric Imaging Plate Reader (FLIPR, Molecular Devices, Sunnyvale, Calif.). The cDNA encoding the human metabotropic glutamate receptor (hmGluR4), (accession number NM_000841.1, NCBI Nucleotide database browser), was subcloned into an expression vector containing also the hygromycin resistance gene. In parallel, the cDNA encoding a G protein allowing redirection of the activation signal to intracellular calcium flux was subcloned into a different expression vector containing also the puromycin resistance gene. Transfection of both these vectors into HEK293 cells with PolyFect reagent (Qiagen) according to supplier's protocol, and hygromycin and puromycin treatment allowed selection of antibiotic resistant cells which had integrated stably one or more copies of the plasmids. Positive cellular clones expressing hmGluR4 were identified in a functional assay measuring changes in calcium fluxes in response to glutamate or selective known mGluR4 orthosteric agonists and antagonists. HEK-293 cells expressing hmGluR4 were maintained in media containing DMEM, dialyzed Fetal Calf Serum (10%), Glutamax™ (2 mM), Penicillin (100 units/mL), Streptomycin (100 μg/mL), Geneticin (100 μg/mL) and Hygromycin-B (40 μg/mL) and puromycin (1 μg/mL) at 37° C./5% CO2. Human mGluR4 HEK-293 cells were plated out 24 hours prior to FLIPR^384 assay in black-walled, clear-bottomed, poly-L-ornithine-coated 384-well plates at a density of 25,000 cells/well in a glutamine/glutamate free DMEM medium containing foetal bovine serum (10%), penicillin (100 units/mL) and streptomycin (100 μg/mL) at 37° C./5% CO2. On the day of the assay, the medium was aspirated and the cells were loaded with a 3 μM solution of Fluo4-AM (LuBioScience, Lucerne, Switzerland) in 0.03% pluronic acid. After 1 hour at 37° C./5% CO2, the non incorporated dye was removed by washing cell plate with the assay buffer and the cells were left in the dark at room temperature for […] before testing. All assays were performed in a pH 7.4 buffered-solution containing 20 mM HEPES, 143 mM NaCl, 6 mM KCl, 1 mM MgSO4, 1 mM CaCl2, 0.125 mM sulfapyrazone and 0.1% glucose. After 10 s of basal fluorescence recording, various concentrations of the compounds of the invention were added to the cells. Changes in fluorescence levels were first monitored for 180 s in order to detect any agonist activity of the compounds. Then the cells were stimulated by an EC25 glutamate concentration for an additional 110 s in order to measure enhancing activities of the compounds of the invention. EC25 glutamate concentration is the concentration giving 25% of the maximal glutamate response. The concentration-response curves of representative compounds of the present invention were generated using the Prism GraphPad software (Graph Pad Inc, San Diego, USA). The curves were fitted to a four-parameter logistic equation: (Y=Bottom+(Top−Bottom)/(1+10^((Log EC50−X)*Hill Slope) allowing the determination of EC50 values. The Table 3 below represents the mean EC50 obtained from at least three independent experiments of selected molecules performed in duplicate.

Row | SMILES | EC50 [1] | melting point
1 | c1ccc(Nc2nc(-c3cn[nH]c3)c(N3CCCC3)s2)nc1 [Compound 1-8, 4-(1H-Pyrazol-4-yl)-N-(pyridin-2-yl)-5-(pyrrolidin-1-yl)thiazol-2-amine] | 1 to 10 µM | 209 °C
2 | N#Cc1[nH]ncc1-c1csc(Nc2ccccn2)n1 [Compound 1-26, 4-(2-(Pyridin-2-ylamino)thiazol-4-yl)-1H-pyrazole-5-carbonitrile] | 0.1 to 1 µM | 
3 | Clc1[nH]ncc1-c1csc(Nc2ccccn2)n1 [Compound 1-17, 4-(5-Chloro-1H-pyrazol-4-yl)-N-(pyridin-2-yl)thiazol-2-amine] | < 0.1 µM | 299 to 304 °C
4 | Cc1sc(Nc2ncccn2)nc1-c1cn[nH]c1 [Compound 1-16, 5-Methyl-4-(1H-pyrazol-4-yl)-N-(pyrimidin-2-yl)thiazol-2-amine] | < 0.1 µM | 298 to 300 °C
5 | CC(=O)NCn1cc(-c2nc(Nc3ccccn3)sc2C)cn1 [Compound 1-61, N-((4-(5-Methyl-2-(pyridin-2-ylamino)thiazol-4-yl)-1H-pyrazol-1-yl)methyl)acetamide] | 1 to 10 µM | 175 °C and 180 °C
6 | c1ccc(Nc2nc(-c3c[nH]nc3CC3CC3)cs2)nc1 [Compound 1-6, 4-(3-(Cyclopropylmethyl)-1H-pyrazol-4-yl)-N-(pyridin-2-yl)thiazol-2-amine] | 0.1 to 1 µM | 
7 | CN(C)c1[nH]ncc1-c1csc(Nc2ncccn2)n1 [Compound 1-65, 4-(5-(Dimethylamino)-1H-pyrazol-4-yl)-N-(pyrimidin-2-yl)thiazol-2-amine] | 1 to 10 µM | 
8 | Cc1sc(Nc2cccc(C#N)n2)nc1-c1cn[nH]c1 [Compound 1-1, 6-(5-Methyl-4-(1H-pyrazol-4-yl)thiazol-2-ylamino)picolinonitrile] | 0.1 to 1 µM | 331 °C
9 | Cn1ccc(Nc2nc(-c3cn[nH]c3)cs2)n1 [Compound 1-27, N-(1-Methyl-1H-pyrazol-3-yl)-4-(1H-pyrazol-4-yl)thiazol-2-amine] | 1 to 10 µM | 209 to 211 °C
10 | c1ccc(Nc2nc(-c3cn[nH]c3)c(CN3CCOCC3)s2)nc1 [Compound 1-21, 5-(Morpholinomethyl)-4-(1H-pyrazol-4-yl)-N-(pyridin-2-yl)thiazol-2-amine] | 1 to 10 µM | 
11 | CC(=O)c1[nH]ncc1-c1csc(Nc2nccc(C)n2)n1 [Compound 1-54, 1-(4-(2-(4-Methylpyrimidin-2-ylamino)thiazol-4-yl)-1H-pyrazol-5-yl)ethanone] |  | 305 to 310 °C
12 | COCc1sc(Nc2ccccn2)nc1-c1cn[nH]c1 [Compound 1-18, 5-(Methoxymethyl)-4-(1H-pyrazol-4-yl)-N-(pyridin-2-yl)thiazol-2-amine] | 0.1 to 1 µM | 
13 | O=C(c1[nH]ncc1-c1csc(Nc2ncccn2)n1)C1CC1 [Compound 1-66, Cyclopropyl(4-(2-(pyrimidin-2-ylamino)thiazol-4-yl)-1H-pyrazol-5-yl)methanone] |  | 244 °C
14 | Cc1sc(Nc2cccc(CF)n2)nc1-c1cn[nH]c1 [Compound 1-43, N-(6-(Fluoromethyl)pyridin-2-yl)-5-methyl-4-(1H-pyrazol-4-yl)thiazol-2-amine] |  | 270 to 280 °C
15 | Fc1cccc(Nc2nc(-c3cn[nH]c3)c(F)s2)n1 [Compound 1-10, 5-Fluoro-N-(6-fluoropyridin-2-yl)-4-(1H-pyrazol-4-yl)thiazol-2-amine] | < 0.1 µM | 237 °C
16 | Cc1sc(Nc2cccc(C(F)F)n2)nc1-c1cn[nH]c1 [Compound 1-44, N-(6-(Difluoromethyl)pyridin-2-yl)-5-methyl-4-(1H-pyrazol-4-yl)thiazol-2-amine] |  | 269 to 271 °C
17 | CCc1ccnc(Nc2nc(-c3cn[nH]c3)c(C)s2)n1 [Compound 1-46, N-(4-Ethylpyrimidin-2-yl)-5-methyl-4-(1H-pyrazol-4-yl)thiazol-2-amine] |  | 223 to 225 °C
